Results as given in article PMC4466507, “Seneca Valley Virus 3C^pro Substrate Optimization Yields Efficient Substrates for Use in Peptide-Prodrug Therapy” (PLoS ONE, 2015).
Several values for one entry are separate records, joined by “and”; a condition that tells them apart may be missing. Equal entries are not always repeated.

Experiments:
[1] = target: T1, SVV-001 3C^pro produced during SVV-001 infection of NCI-H446 cells (Seneca Valley virus, UniProt Q155Z9); test: Fluorescently quenched peptide cellular assay (SVV-001 infected NCI-H446 cells); format: cell-based, Seneca Valley Virus (SVV-001); conditions: FQ peptide 3 μM; for cleavage (increase in fluorescence) with SVV-001 infected cells / cleavage (increase in fluorescence) with uninfected cells: 3 hours at 37°C
T1 construct: 3C^pro released during a lytic viral infection is the sole source of the 3C^pro; endogenous in cells; host or cells: NCI-H446 (human SCLC) cells infected with wild-type SVV-001 for 8 h
Description: (§1) All SVV-001 stocks were cultured and purified as described previously and virus titers were determined by tissue culture infective dose (TCID50). The SCLC cell line, NCI-H446 (ATCC) was cultured in RPMI 1640 media (Quality Biological) supplemented with 10% fetal bovine serum (HyClone). The cell line NCI-H446 is routinely tested and authenticated by short tandem repeat (STR) analysis by DDC Medical and was last authenticated six months before submission.
A similar cellular assay was performed as described in the previous paragraph with the exception of using the CPQ2/5-FAM L/VP4.1 and NHL fluorogenic peptides described earlier. After an 8 hour infection with SVV-001, NCI-H446 cells were removed from the cell culture dish using phenol-red free RPMI 1640 media supplemented with 0.1% ethylenediaminetetraacetic acid (EDTA, Sigma) to aid in gentle cell detachment, and pelleted via centrifugation. Pellets were resuspended in phenol-red free RPMI 1640 prior to plating in black opaque 96 well plates as above. CPQ2/5-FAM peptides, L/VP4.1 or NHL were added at a final concentration of 3 μM to plated cells and incubated for 3 hours at 37°C. Fluorescence emissions at 520 nm, corresponding to the liberated 5-FAM fluorophore peptide cleavage product was followed after excitation at 490 nm by a Synergy Neo multimode plate reader (Biotek) every 60 s. The experiment was performed in triplicate in a 96 well flat bottom black opaque plate and average fluorescence units were used to observe changes in fluorescence. Standard curves of 5-FAM fluorescence vs. concentration were generated to convert the relative fluorescence units to moles of cleaved product generated during the reaction. Initial rates of hydrolysis were calculated from data during the first 10 minutes of the reaction and averaged from 3–4 separate experiments. Uncertainty is expressed by standard deviation and shown with error bars.

Plasma stability assay = format: in vitro ADME; conditions: pooled, 50% plasma/water, peptide 20 μM, 1 hour at 37°C; for change in fluorescence relative to plasma alone: human plasma, fluorescence read-out (ex 490 nm/em 520 nm) every 60 s, triplicate
Description: Human plasma was obtained from pooled discarded clinical samples less than 6 hrs old. Human plasma was isolated from whole blood by centrifugation, pooled, and diluted 1:1 with distilled H2O (Gibco). The L/VP4.1 and NHL fluorogenic peptides (20 μM) were incubated with plasma for 1 h at 37°C. Fluorescence emissions were obtained as described above by a DTX 880 multimode detector ([…]) every 60 s. Experiments were performed in triplicate in a 96 well flat bottom black opaque plate and the average fluorescence units were used to observe changes in fluorescence. Uncertainty is expressed by standard deviation.

[2] = target: T1, SVV-001 3C^pro produced during SVV-001 infection of NCI-H446 cells; test: FRET substrate cellular assay (SVV-001 infected NCI-H446 cells); format: cell-based, Seneca Valley Virus (SVV-001); conditions: FP substrate 200 nM, NCI-H446 cells after 8 h SVV-001 infection, 3 h at 37°C
Description: as §1
Cells (1.6 × 10^7) were plated on a 150 mm cell culture dish (Corning) and allowed to recover overnight at 37°C. Each plate was inoculated with SVV-001 at the TCID50 and infected cells were incubated at 37°C for 8 h. After aspiration of the media, cells were mechanically lifted from the plate in phenol-red free RPMI 1640 media (Gibco) and pelleted by centrifugation. […] During the substrate incubation the change in FRET was measured with a Tecan Safire fluorimeter as described above. Conversion of the L/VP4.1 substrate to cleaved substrate was calculated by dividing the change in the FRET ratio at each time point by the total change in the FRET ratio corresponding to complete cleavage of the substrate. The conversion of the NHL substrate was similarly determined by dividing the change in the FRET ratio of the NHL at each time point by the total change in the FRET ratio of the L/VP4.1 substrate corresponding to complete cleavage. […]

SVV-001 3C^pro = target: T2, SVV-001 3C^pro (Seneca Valley virus, UniProt Q155Z9); test: FRET substrate cleavage assay with purified recombinant SVV-001 3C^pro; format: biochemical, Seneca Valley Virus (SVV-001); conditions: for kcat/KM: CyPet/YPet FRET fusion protein substrate 200 nM, PBS pH 7.4, 30°C, average of 5–7 experiments, uncertainty SD, N/A where no cleavage was measurable; for kcat/KM / cleavage by SVV-001 3C^pro (result in words): 3 h; for Relative to WT: kcat/KM relative to endogenous L/VP4 FRET substrate; for cleavage by SVV-001 3C^pro (result in words): FRET fusion protein substrate 200 nM, 30°C
T2 construct: made in house; host or cells: E. coli BL21 AI
Description: (§2) Reactions were performed in PBS, pH 7.4 and 200 nM FRET substrate in a total volume of 100 μL. Substrates were incubated with 250 nM SVV-001 3C^pro at 30°C for 3 h. Human rhinovirus (HRV) control substrate was incubated with recombinant HRV 3C^pro under the same conditions. Fluorescence emissions at 475 nm and 527 nm, corresponding to CyPet and YPet respectively, were followed after excitation at 433 nm every 180 s by a Safire fluorimeter (Tecan). All experiments were performed in triplicate. FRET ratios (YPet fluorescence/CyPet fluorescence) were calculated at each timepoint. Conversion of each substrate to cleaved substrate was calculated by dividing the change in the FRET ratio at each timepoint by the total change in the FRET ratio corresponding to complete cleavage of the substrate. Using the equation from Boulware et al., conversion data was plotted vs. time (s) and fit with the equation: […] where [E] is the 3C^pro concentration (M) and t is time (s). The second order rate constant (k cat/K M) was determined by the curve fit using GraphPad Prism software. Reported values are the average k cat/K M values of 5–7 experiments. Uncertainty is expressed by standard deviation. Error bars on data points were removed for figure clarity.

HRV 3C^pro = target: T3, HRV 3C^pro (Human rhinovirus 14, UniProt P03303); test: FRET substrate cleavage assay with recombinant HRV 3C^pro; format: biochemical
T3 construct: Recombinant HRV 3C Protease was purchased from Sigma; purchased Sigma
Description: as §2
Supplementary file pone.0129103.s004.tif: S4 Fig Comparison of SVV 3C^pro- L/VP4.1 Substrate Specificity to Selected Picornavirus Protease-Substrate Pairs. A. Substrates L/VP4.1 (labeled SVV), HRV, and Coxsackievirus (CAV) 2C/3A substrate (labeled CAV) with amino acid sequence MEALFQ↓GP were incubated with 250 nM SVV 3C^pro (black data points), HRV 3C^pro (blue data points), or CAV 3C^pro (red data points) for 3 hours at 30°C. CAV 3C^pro was cloned, overexpressed, and purified using the same methods described for SVV 3C^pro in the Methods section. The decrease in FRET was measured in real time using a fluorimeter and data was converted to display fraction of substrate converted to hydrolyzed substrate over time. Data points represent the average of three replicates at each time point. […]

CAV 3C^pro = test: FRET substrate cleavage assay with CAV 3C^pro; format: biochemical, Coxsackie A virus (CAV); conditions: 250 nM CAV 3C^pro, 3 hours at 30°C
Description: Supplementary file pone.0129103.s004.tif: S4 Fig Comparison of SVV 3C^pro- L/VP4.1 Substrate Specificity to Selected Picornavirus Protease-Substrate Pairs. A. Substrates L/VP4.1 (labeled SVV), HRV, and Coxsackievirus (CAV) 2C/3A substrate (labeled CAV) with amino acid sequence MEALFQ↓GP were incubated with 250 nM SVV 3C^pro (black data points), HRV 3C^pro (blue data points), or CAV 3C^pro (red data points) for 3 hours at 30°C. CAV 3C^pro was cloned, overexpressed, and purified using the same methods described for SVV 3C^pro in the Methods section. The decrease in FRET was measured in real time using a fluorimeter and data was converted to display fraction of substrate converted to hydrolyzed substrate over time. Data points represent the average of three replicates at each time point. B. Heat map depicting relative rates of cleavage for protease-substrate pairs compared to the native protease-substrate pair. (TIF) Click here for additional data file.

[3] = NCI-H446 cells after 8 hour SVV-001 infection
[4] = FRET fusion protein substrate, 250 nM SVV-001 3C^pro

T3 sequence (P03303 1538-1719): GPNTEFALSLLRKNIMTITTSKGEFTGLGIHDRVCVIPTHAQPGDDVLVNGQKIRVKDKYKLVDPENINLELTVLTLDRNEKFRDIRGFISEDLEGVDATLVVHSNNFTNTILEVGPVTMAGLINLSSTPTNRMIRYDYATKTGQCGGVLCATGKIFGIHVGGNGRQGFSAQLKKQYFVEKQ
T2 sequence (Q155Z9 1509-1719): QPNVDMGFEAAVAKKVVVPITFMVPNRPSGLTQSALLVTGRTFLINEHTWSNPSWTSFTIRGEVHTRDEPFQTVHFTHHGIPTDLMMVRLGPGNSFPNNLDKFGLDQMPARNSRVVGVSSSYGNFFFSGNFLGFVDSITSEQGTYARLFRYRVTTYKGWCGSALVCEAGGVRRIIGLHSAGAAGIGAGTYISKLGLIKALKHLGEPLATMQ
T1 sequence (Q155Z9 1508-1719): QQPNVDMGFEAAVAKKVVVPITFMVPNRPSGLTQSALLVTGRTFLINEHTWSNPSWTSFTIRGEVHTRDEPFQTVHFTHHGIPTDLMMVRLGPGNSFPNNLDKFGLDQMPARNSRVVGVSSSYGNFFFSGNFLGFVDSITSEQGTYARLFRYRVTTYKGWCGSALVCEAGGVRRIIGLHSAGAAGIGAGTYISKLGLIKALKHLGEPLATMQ

CPQ2-GGSGGS-K(5FAM)-KK-NH2 [NHL FQ peptide, non-hydrolysable linker peptide CPQ2-GGSGGS-K(5FAM)-KK-NH2, negative control, reference compound]
cleavage (increase in fluorescence) with SVV-001 infected cells [1, 3]: not cleaved
cleavage (increase in fluorescence) with uninfected cells ([1]; uninfected NCI-H446 cells): not cleaved

CPQ2-IVYELQGP-K(5FAM)-KK-NH2 [L/VP4.1 FQ peptide]
change in fluorescence relative to plasma alone (Plasma stability assay): no significant change in fluorescence
stability in human plasma (conclusion) (Plasma stability assay; fluorescence read-out): stable
initial rate of reaction, SVV infected cells ([1]; NCI-H446 cells after 8 hour SVV-001 infection, 37°C, first 10 minutes, averaged from 3–4 experiments, SD): 0.446 ± 0.0056 pmol/s
cleavage (increase in fluorescence) with SVV-001 infected cells [1, 3]: significant increase in fluorescence
initial rate of reaction, uninfected cells ([1]; uninfected NCI-H446 cells, 37°C, first 10 minutes, averaged from 3–4 experiments, SD): 0.168 ± 0.0025 pmol/s
cleavage (increase in fluorescence) with uninfected cells ([1]; uninfected NCI-H446 cells): did not show an appreciable increase in fluorescence

GGSGGS [NHL, non-hydrolysable linker FP substrate (GGSGGS), negative control, reference compound]
change in fluorescence relative to plasma alone (Plasma stability assay): no significant change in fluorescence
loss of FRET (cleavage) with SVV-001 infected cells [2]: did not show a loss of FRET

IVFELQGP [L/VP4.3, L/VP4.1 FRET substrate with P4 Y→F substitution]
kcat/KM (SVV-001 3C^pro; 250 nM SVV-001 3C^pro): 12160 M⁻¹ s⁻¹
cleavage less efficient than the L/VP4.1 Pro variant (SVV-001 3C^pro; [4]): 30%
Relative to WT (SVV-001 3C^pro): 6.3

IVMELQGP [L/VP4.4, L/VP4.1 FRET substrate with P4 Y→M substitution]
kcat/KM (SVV-001 3C^pro; 250 nM SVV-001 3C^pro): 10344 M⁻¹ s⁻¹
cleavage less efficient than the L/VP4.1 Pro variant (SVV-001 3C^pro; [4]): 40%
Relative to WT (SVV-001 3C^pro): 5.3

IVYELQGN [L/VP4, endogenous SVV-001 3C^pro cleavage site IVYELQGN cloned between CyPet and YPet as FRET fusion protein substrate]
kcat/KM (SVV-001 3C^pro; 250 nM SVV-001 3C^pro): 1932 ± 183 M⁻¹ s⁻¹ and 1932 M⁻¹ s⁻¹
cleavage by SVV-001 3C^pro (result in words) (SVV-001 3C^pro; 250 nM SVV-001 3C^pro): efficiently cleaved

IVYELQGP [L/VP4.1, L/VP4 with Q↓GP (P2’ N→P substitution), FRET fusion protein substrate]
loss of FRET (cleavage) with SVV-001 infected cells [2]: Loss of FRET
turnover by non-native 3C protease (HRV 3C^pro) (HRV 3C^pro; FRET substrate, 250 nM HRV 3C^pro, 3 hours at 30°C): no turnover
kcat/KM (SVV-001 3C^pro; 250 nM SVV-001 3C^pro): 17446 ± 2203 M⁻¹ s⁻¹ and 17446 M⁻¹ s⁻¹
increase of kcat/KM relative to L/VP4 (SVV-001 3C^pro; [4]): approximately 9 fold
Relative to WT (SVV-001 3C^pro): 9.0
turnover by non-native 3C protease (CAV 3C^pro) (CAV 3C^pro): no turnover

IVYELQ↓SP [L/VP4.9, P1’ GN→SP substituted form of L/VP4 (IVYELQ↓SP) cloned between CyPET and YPET]
cleavage by SVV-001 3C^pro (result in words) (SVV-001 3C^pro; 250 nM SVV-001 3C^pro): increased turnover efficiency over L/VP4, but was inferior to L/VP4.1

IVYEPQGP [L/VP4.2, L/VP4.1 FRET substrate with P2 L→P substitution]
cleavage by SVV-001 3C^pro (result in words) (SVV-001 3C^pro; 250 nM SVV-001 3C^pro): not efficiently cleaved in 3 hours

KLFKMQGP [2B/2C, endogenous SVV-001 cleavage site KLFKMQGP cloned between CyPet and YPet as FRET fusion protein substrate]
kcat/KM (SVV-001 3C^pro; 250 nM SVV-001 3C^pro): 1204 ± 146 M⁻¹ s⁻¹ and 1204 M⁻¹ s⁻¹
cleavage by SVV-001 3C^pro (result in words) (SVV-001 3C^pro; 250 nM SVV-001 3C^pro): efficiently cleaved

LEVLFQGP [HRV, optimized human rhinovirus 3C^pro FP substrate (LEVLFQGP), positive control]
kcat/KM (HRV 3C^pro; CyPet/YPet FRET fusion protein substrate 200 nM, recombinant HRV 3C^pro, PBS pH 7.4, 30°C, 3 h, average of 5–7 experiments, uncertainty SD): 5079 ± 528 M⁻¹ s⁻¹ and 5079 M⁻¹ s⁻¹
kcat/KM higher than either SVV FP substrate (L/VP4, 2B/2C) (HRV 3C^pro; HRV FP substrate with HRV 3C^pro versus SVV FP substrates with SVV-001 3C^pro): 3-4 fold

VYELQGP [L/VP4.5, P6 truncation of L/VP4.1 FRET substrate]
kcat/KM (SVV-001 3C^pro; 250 nM SVV-001 3C^pro): 9839 M⁻¹ s⁻¹
decrease of turnover efficiency of cleavage from L/VP4.1 (SVV-001 3C^pro; [4]): ~2 fold
Relative to WT (SVV-001 3C^pro): 5.1

YELQGP [L/VP4.6, P5/P6 truncation of L/VP4.1 FRET substrate]
kcat/KM (SVV-001 3C^pro; 250 nM SVV-001 3C^pro): 1939 M⁻¹ s⁻¹
Relative to WT (SVV-001 3C^pro): 1.0
